Results published in patent US6949575B2, “Method of inhibiting amyloid protein aggregation and imaging amyloid deposits using aminoindane derivatives” (Pfizer Inc., priority 2000, dated 2005).
“And” between values parts separate entries of the source, which are not always exact repeats. Equal entries are not always repeated.

Key:
Type in all cases: biochemical
Soluble Aβ(1-40) = molecular target: T1, Soluble Aβ(1-40) (Homo sapiens, UniProt P05067); assay: BASST (Beta-Amyloid Self-Seeding, Thioflavin T): inhibitors of self-seeded amyloid fibril growth; details: 30 μM soluble Aβ(1-40), 37° C., 3 to 5 hours, thioflavin T fluorescence
T1 construct: Soluble Aβ(1-40)—2.2 mg/mL in deionized H2O
Procedure: • 1) Prepare reaction mixture above by mixing components and storing on ice. • 2) Pipet 14.5 μL of reaction mixture into each of 50 wells on a polypropylene U-bottom 96-well microtiter plate on ice (Costar 3794). • 3) Add 1.7 μL of diluted compound to be tested to each well in a column of eight, including solvent control. Serial 3-fold dilutions from 1 mM (100 μM final) in assay buffer-urea=7 dilutions+zero. Each 96-well plate can therefore accommodate 11 samples+1 Congo Red control (0.039-5 μM final in 2-fold steps). • 4) Seal the plate with aluminum film (Beckman 538619) and incubate for 10 minutes on ice. • 5) Raise the temperature to 37° C. and incubate for 3 to 5 hours (depending on the lot of the peptide). • 6) Remove the aluminum film and add 200 μL/well of ice cold assay buffer with urea, collecting the radiolabeled fibrils by vacuum filtration through 0.2-μm pore size GVWP filters in 96-well plates (Millipore MAGV […], Bedford, Mass.). Determine the radioactivity of the filters using standard methods well-known to those skilled in the art. BASST (Beta-Amyloid Self-Seeding, Thioflavin T) An assay for inhibitors of self-seeded amyloid fibril growth Methods: Materials: Stock Solutions: Assay Buffer-50 mM sodium phosphate, pH 7.5, 100 mM NaCl, 0.02% NaN3, 1 M urea (filter and store at 4° C.) Soluble Aβ(1-40)-2.2 mg/mL in deionized H2O (store in aliquots at -20° C., keep on ice when thawed) will self-seed after 1 week storage. Typically, the solution should be stored until no lag phase is seen in the assay. Final assay conditions: 30 μM soluble Aβ(1-40) in deionized water in assay buffer. Compound to be tested is dissolved in DMSO, typically 5 to 50 mM stock, such that the final concentration of DMSO is <1% v/v in the assay. Assay: Reaction mixture for 50 assays (on ice) comprised of 1 μL of soluble Aβ(1-40)+13.5 μL assay buffer per assay. The following are the amounts of the components of the reaction mixture that result in each of the 50 assay wells. 50 μL soluble Aβ(1-40) 675 μL assay buffer Assay Method • 1) Prepare the reaction mix above by mixing the components and storing on ice. • 2) Pipet 14.5 μL of reaction mixture into each of 50 wells of a polystyrene U-bottom 96-well microtiter plate (Coming 25881-96) on ice. • 3) Add 1.7 μL of diluted compound to be tested to each well in a column of eight, including solvent control. Serial 3-fold dilutions from 1 mM (100 μM final) in assay buffer-urea=7 dilutions+zero. Each 96-well plate can therefore accommodate 11 samples+1 Congo Red control (0.039-5 μM final in 2-fold steps). • 4) Seal the plate with aluminum film and incubate for 10 minutes on ice. • 5) Raise the temperature to 37° C. and incubate for 3 to 5 hours (depends on the lot of the peptide). • 6) Remove the aluminum film and add 250 μL/well of 5 μM thioflavin T (ThT) [T-3516, Sigma-Aldrich] in 50 mM glycine-NaOH, pH 8.5. Read fluorescence on a plate reader (ex=440 nm/20 nm; em=485 nm/20 nm) within 5 minutes. BAPA (Beta-Amyloid Peptide Aggregation)

Aβ (1-40) peptide = molecular target: T2, Aβ (1-40) peptide (Homo sapiens, UniProt P05067); assay: BAPA (Beta-Amyloid Peptide Aggregation, pH 6.0), filtration endpoint; details: Aβ(1-40) 33 μM, pH 6.0, 2 to 4 hours, room temperature
T2 construct: Aβ (1-40) peptide in 20% HFIP
Procedure: • 1) Prepare the reaction mix above by mixing the components and storing on ice. • 2) Pipet 14.5 μL of reaction mixture into each of 50 wells of a polystyrene U-bottom 96-well microtiter plate (Coming 25881-96) on ice. • 3) Add 1.7 μL of diluted compound to be tested to each well in a column of eight, including solvent control. Serial 3-fold dilutions from 1 mM (100 μM final) in assay buffer-urea=7 dilutions+zero. Each 96-well plate can therefore accommodate 11 samples+1 Congo Red control (0.039-5 μM final in 2-fold steps). • 4) Seal the plate with aluminum film and incubate for 10 minutes on ice. • 5) Raise the temperature to 37° C. and incubate for 3 to 5 hours (depends on the lot of the peptide). • 6) Remove the aluminum film and add 250 μL/well of 5 μM thioflavin T (ThT) [T-3516, Sigma-Aldrich] in 50 mM glycine-NaOH, pH 8.5. Read fluorescence on a plate reader (ex=440 nm/20 nm; em=485 nm/20 nm) within 5 minutes. BAPA (Beta-Amyloid Peptide Aggregation) This assay is used to provide a measure of inhibition by a compound against the aggregation behavior of the β-amyloid peptide. The purpose of this assay is to provide a higher volume method of assaying the amount of β-amyloid aggregation using an endpoint assay based on filtration. In this assay, hexafluoroisopropanol (HFIP) is used to break down the initial amyloid peptide to a monomer state and use a concentration of 33 μM which is high enough so that aggregation will occur at pH 6.0 in several hours. Methods: Beta-Amyloid Peptide Aggregation, pH 6.0 (BAPA) In a 96-well plate (Costar 3794), we add 25 μL 50 mM phosphate buffer, pH 6.0, 10 μL 0.5 mg/mL Aβ (1-40) peptide in 20% HFIP+0.1 μL/assay radioiodinated ^125I Aβ (1-40) [^125I Aβ(1-40)], and 1 μL of the compound to be tested starting at 50 mM with a concentration of DMSO<1%. Then, we incubate for 2 to 4 hours at room temperature. We stop the reaction with 200 μL of 50 mM phosphate buffer, pH 6.0, and filter it through a 0.2 μm 96-well filter plate (Millipore MAGU […]). We wash the filter plate with 100 μL of the same phosphate buffer. Aggregation was detected on a Microbeta counter after impregnating the filters with Meltilex (1450-441) and is corrected for background.

Aβ (1-42) = molecular target: T3, Aβ (1-42) (Homo sapiens, UniProt P05067); assay: Batym Assay: Aβ (1-42) aggregation, Thioflavin T fluorescence; details: Aβ1-42 final 100 μM, 37° C., 1 day, read-out: BAYTM IC50
T3 construct: Required Aβ (1-42) (California Peptide); purchased California Peptide
Procedure: Required Aβ (1-42) (California Peptide) was dried from its HFIP stock solution. The Aβ (1-42) was dissolved in DMSO and then mixed with phosphate buffered saline (PBS) (pH 7.4). The mixed Aβ (1-42) solution was filtered with a Omnipore membrane 0.2-μm syringe filter (Millipore, Bedford, Mass.). The compound to be tested in DMSO (50× concentrate) was put into each well (0.5 μL/well) of a 96-well plate. The Aβ (1-42) solution was added into each well (24.5 μL/well). The plate was centrifuged at 1,000 g for 5 minutes and incubated at 37° C. for 1 day (Aβ1-42; final concentration 100 μM).
After incubation, Thioflavin T (ThT) (30 μM) solution in glycine-NaOH buffer (pH 8.5, 50 mM) was added into each well (250 μL/well), fluorescence was measured (ex=440/20 nm; em=485/20 nm) using a fluorescence plate reader. The inhibitory activity was calculated as the reduction of fluorescence with the following formula: Inhibition (%)={(F(Aβ)−F(Aβ+compound)}/{F(Aβ)−[…]}×100
The IC50s were calculated by a curve fitting program using the following equation. The data were obtained from two different experiments in triplicate. Inhibition (x)=100−100/{1+(x/IC50)^n}. • x=concentration of tested compound (M). • IC50=(M). • n=Hill coefficient.

Soluble Aβ(1-40) peptide = molecular target: T4, Soluble Aβ(1-40) peptide (Homo sapiens, UniProt P05067); assay: BASSR (Beta-Amyloid Self-Seeding Radioassay): inhibitors of self-seeded amyloid fibril growth; details: 30 μM soluble Aβ(1-40) + 125I-labeled Aβ(1-40), 37° C., 3 to 5 hours, filtration; replicate values
T4 construct: Soluble Aβ(1-40) peptide; purchased Bachem, Torrance, Calif
Procedure: BASSR (Beta-Amyloid Self-Seeding Radioassay)
An assay for inhibitors of self-seeded amyloid fibril growth
Assay Buffer—[…] sodium phosphate, pH 7.5, 100 mM NaCl, 0.02% NaN3, 1 M urea (filter and store at 4° C.)
Soluble Aβ(1-40) peptide (Bachem, Torrance, Calif.)—2.2 mg/mL in deionized H2O (stored in aliquots at −20° C., keep on ice when thawed) will self-seed after 1 week storage. Typically, the solution should be stored until no lag phase is seen in the assay.
^125I-labeled Aβ(1-40)—150 to 350K cpm/μL in 100% acetonitrile—0.1% trifluoroacetic acid (TFA)—1% β-mercaptoethanol (aliquots stored at −20° C.). ^125I-labeled Aβ(1-40) can be made in accordance with the procedure set forth by H. Levine, III in Neurobiol. Aging, 16:755 (1995), which is hereby incorporated by reference, or this reagent may be purchased from Amersham, Arlington Heights, Ill. Final assay conditions: 30 μM soluble Aβ(1-40) in deionized water in assay buffer+20 to 50K cpm ^125I-labeled Aβ(1-40) per assay. Compound to be tested is dissolved in dimethylsulfoxide (DMSO), typically 5 to 50 mM stock, such that the final concentration of DMSO is <1% v/v in the assay. Assay: Reaction mixture for 50 assays (on ice) is comprised of 0.1 to 0.2 μL of ^125I-labeled A^125I-labeled Aβ(1-40)+1 μL of soluble Aβ(1-40)+13.5 μL assay buffer per assay. The following are the amounts of the components of the reaction mixture sufficient for 50 assay wells.
• 1) Prepare reaction mixture above by mixing components and storing on ice. • 2) Pipet 14.5 μL of reaction mixture into each of 50 wells on a polypropylene U-bottom 96-well microtiter plate on ice (Costar 3794). • 3) Add 1.7 μL of diluted compound to be tested to each well in a column of eight, including solvent control. Serial 3-fold dilutions from 1 mM (100 μM final) in assay buffer-urea=7 dilutions+zero. Each 96-well plate can therefore accommodate 11 samples+1 Congo Red control (0.039-5 μM final in 2-fold steps). • 4) Seal the plate with aluminum film (Beckman 538619) and incubate for 10 minutes on ice. • 5) Raise the temperature to 37° C. and incubate for 3 to 5 hours (depending on the lot of the peptide). • 6) Remove the aluminum film and add 200 μL/well of ice cold assay buffer with urea, collecting the radiolabeled fibrils by vacuum filtration through 0.2-μm pore size GVWP filters in 96-well plates (Millipore MAGV N22, Bedford, Mass.). Determine the radioactivity of the filters using standard methods well-known to those skilled in the art. BASST (Beta-Amyloid Self-Seeding, Thioflavin T)

T2 sequence (P05067 672-711 limits assumed): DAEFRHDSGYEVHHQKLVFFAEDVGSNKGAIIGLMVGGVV
T1 sequence (P05067 672-711 limits assumed): as above
T3 sequence (P05067 672-713 limits assumed): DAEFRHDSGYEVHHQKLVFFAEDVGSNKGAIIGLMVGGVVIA
T4 sequence (P05067 672-711 limits assumed): as the sequence (P05067 672-711 limits assumed) above

What does the source list for `O=C(O)c1cc([N+](=O)[O-])ccc1NC1Cc2ccc(Nc3ccc(Cl)c(Cl)c3)cc2C1` (centres unmarked) [Example 9, 2-[5-(3,4-Dichlorophenylamino)-indan-2-ylamino]-5-nitro-benzoic acid]?
IC50 (Soluble Aβ(1-40)): 0.25 µM; IC50 (Aβ (1-40) peptide): 5 µM

With `O=C(O)c1ccccc1Nc1ccc2c(c1)CC(NCc1ccc(Cl)c(Cl)c1)C2` (centres unmarked) [Example 3, 2-[2-(3,4-Dichlorobenzylamino)-indane-5-ylamino]-benzoic acid] as the molecule, how does the IC50 (Soluble Aβ(1-40)) read?
Its IC50 is 40 µM.

What about the IC50 (Aβ (1-42)) of the same molecule?
Its IC50 is > 100 µM.

And the IC50 (Soluble Aβ(1-40) peptide)?
Its IC50 is > 100 µM.

`O=C(O)c1cc([N+](=O)[O-])ccc1Nc1ccc2c(c1)CC(NCc1ccc(Cl)c(Cl)c1)C2` (centres unmarked) [Example 4, 2-[2-(3,4-Dichlorobenzylamino)-indan-5-ylamine]-5-nitro-benzoic Acid] was tested. Which IC50 (Soluble Aβ(1-40)) did it give?
Its IC50 is 1.1 µM.

What about the IC50 (Aβ (1-42)) of the same molecule?
The IC50 was 16 µM.

And the IC50 (Aβ (1-40) peptide)?
Its IC50 is 28 µM.

With `O=C(O)c1cc([N+](=O)[O-])ccc1Nc1ccc2c(c1)CC(N(Cc1ccc(F)cc1)Cc1ccc(F)cc1)C2` (centres unmarked) [Example 11, 2-{2-[bis-(4-Fluorobenzyl)amino]indan-5-ylamino}-5-nitro-benzoic acid] as the molecule, how does the IC50 (Soluble Aβ(1-40)) read?
The IC50 was 1 µM.

And the IC50 (Aβ (1-42))?
The IC50 was 7 µM and 12 µM.

And the IC50 (Aβ (1-40) peptide)?
The IC50 was 7 µM.
